pIC50: −log10 of the molar value.
Molecular target: T1, PME-1 (PP2A-specific methylesterase) (Homo sapiens, UniProt Q9Y570)
T1 sequence (Q9Y570 2-386): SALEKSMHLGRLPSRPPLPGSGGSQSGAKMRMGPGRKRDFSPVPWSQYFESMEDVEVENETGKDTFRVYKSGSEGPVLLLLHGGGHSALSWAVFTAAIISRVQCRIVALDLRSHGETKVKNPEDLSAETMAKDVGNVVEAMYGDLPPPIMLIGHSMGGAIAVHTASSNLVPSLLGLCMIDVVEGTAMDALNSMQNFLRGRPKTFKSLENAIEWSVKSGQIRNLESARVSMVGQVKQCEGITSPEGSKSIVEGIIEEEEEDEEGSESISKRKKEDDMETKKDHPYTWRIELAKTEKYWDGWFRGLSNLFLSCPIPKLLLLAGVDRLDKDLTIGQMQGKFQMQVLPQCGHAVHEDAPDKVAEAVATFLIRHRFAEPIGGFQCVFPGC
Format: biochemical

How did the pIC50 turn out when `CCCCCCCCCCCCCCCCCCCC(=O)NCCc1c[nH]c2ccc(O)cc12` [EHT, eicosinoyl-5-hydroxytryptamide] was run?
The pIC50 was 5.41.

From article PMC5038983 (The Journal of neuroscience : the official journal of the …, 2011)
